# Data taken from publication PMC6979384, “Characterization of the plant homeodomain (PHD) reader family for their histone tail interactions” (Epigenetics & Chromatin, 2020).
# Where no end group is shown, it is not given here. Me3 = trimethyl (on lysine side chain)
# What was measured:
# Experiment in all cases: Histone peptide microarray
# Type in all cases: binding, human
# RAG2 = conditions: arrays performed twice; for Array Heatmap signal, RAG2: sheet "Array Heatmap", GST-tagged RAG2, total replicate number n = 4
# Method in brief: (§1)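 Mean ± SD of 4 replicate array intensities; GST-PHD finger at 0.5 μM against 293 PTM-bearing histone peptides.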
# AIRE (PP) = conditions: arrays performed twice; for Array Heatmap signal, AIRE (PP): sheet "Array Heatmap", GST-tagged AIRE (PP), total replicate number n = 4
# Method in brief: as §1
# PHF23 = conditions: arrays performed twice; for Array Heatmap signal, PHF23: sheet "Array Heatmap", GST-tagged PHF23, total replicate number n = 4
# Method in brief: as §1
# KDM4C (TTP) = conditions: arrays performed twice; for Array Heatmap signal, KDM4C (TTP): sheet "Array Heatmap", GST-tagged KDM4C (TTP), total replicate number n = 4
# Method in brief: as §1
# PHF2 = conditions: arrays performed twice; for Array Heatmap signal, PHF2: sheet "Array Heatmap", GST-tagged PHF2, total replicate number n = 4
# Method in brief: as §1
# MORC3 (CW) = conditions: arrays performed twice; for Array Heatmap signal, MORC3 (CW): sheet "Array Heatmap", GST-tagged MORC3 (CW), total replicate number n = 4
# Method in brief: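 Purified PHD finger domains fused to GST are screened against 293 synthetic histone peptides bearing one or several post-translational modifications. The protein is used at 0.5 μM, and the signal from four replicate arrays is averaged, with standard deviation given.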
# KDM5B (1) = conditions: arrays performed twice; for Array Heatmap signal, KDM5B (1): sheet "Array Heatmap", GST-tagged KDM5B (1), total replicate number n = 4
# Method in brief: as §1
# KDM7A = conditions: arrays performed twice; for Array Heatmap signal, KDM7A: sheet "Array Heatmap", GST-tagged KDM7A, total replicate number n = 4
# Method in brief: as §1
# ING4 = conditions: arrays performed twice; for Array Heatmap signal, ING4: sheet "Array Heatmap", GST-tagged ING4, total replicate number n = 4
# Method in brief: as §1
# ING1 = conditions: arrays performed twice; for Array Heatmap signal, ING1: sheet "Array Heatmap", GST-tagged ING1, total replicate number n = 4
# Method in brief: as §1
# CHD5 (PPCC) = conditions: arrays performed twice; for Array Heatmap signal, CHD5 (PPCC): sheet "Array Heatmap", GST-tagged CHD5 (PPCC), total replicate number n = 4
# Method in brief: as §1
# PHF21A = conditions: arrays performed twice; for Array Heatmap signal, PHF21A: sheet "Array Heatmap", GST-tagged PHF21A, total replicate number n = 4
# Method in brief: as §1
# KDM5A (3) = conditions: arrays performed twice; for Array Heatmap signal, KDM5A (3): sheet "Array Heatmap", GST-tagged KDM5A (3), total replicate number n = 4
# Method in brief: as §1
# KDM5B (3) = conditions: arrays performed twice; for Array Heatmap signal, KDM5B (3): sheet "Array Heatmap", GST-tagged KDM5B (3), total replicate number n = 4
# Method in brief: as §1
# CHD4 (PPCC) = conditions: arrays performed twice; for Array Heatmap signal, CHD4 (PPCC): sheet "Array Heatmap", GST-tagged CHD4 (PPCC), total replicate number n = 4
# Method in brief: as §1
# PHF13 = conditions: arrays performed twice; for Array Heatmap signal, PHF13: sheet "Array Heatmap", GST-tagged PHF13, total replicate number n = 4
# Method in brief: as §1
# DIDO1 = conditions: arrays performed twice; for Array Heatmap signal, DIDO1: sheet "Array Heatmap", GST-tagged DIDO1, total replicate number n = 4
# Method in brief: as §1
# CHD5 (PCC) = conditions: arrays performed twice; for Array Heatmap signal, CHD5 (PCC): sheet "Array Heatmap", GST-tagged CHD5 (PCC), total replicate number n = 4
# Method in brief: as §1
# TRIM66 (PB) = conditions: arrays performed twice; for Array Heatmap signal, TRIM66 (PB): sheet "Array Heatmap", GST-tagged TRIM66 (PB), total replicate number n = 4
# Method in brief: as §1
# ING3 = conditions: arrays performed twice; for Array Heatmap signal, ING3: sheet "Array Heatmap", GST-tagged ING3, total replicate number n = 4
# Method in brief: as §1
# SP140L = conditions: arrays performed twice; for Array Heatmap signal, SP140L: sheet "Array Heatmap", GST-tagged SP140L, total replicate number n = 4
# Method in brief: as §1
# PHRF1 (RP) = conditions: arrays performed twice; for Array Heatmap signal, PHRF1 (RP): sheet "Array Heatmap", GST-tagged PHRF1 (RP), total replicate number n = 4
# Method in brief: as §1
# MLL5 = conditions: arrays performed twice; for Array Heatmap signal, MLL5: sheet "Array Heatmap", GST-tagged MLL5, total replicate number n = 4
# Method in brief: as §1
# ING2 = conditions: arrays performed twice; for Array Heatmap signal, ING2: sheet "Array Heatmap", GST-tagged ING2, total replicate number n = 4
# Method in brief: as §1
# TAF3 = conditions: arrays performed twice; for Array Heatmap signal, TAF3: sheet "Array Heatmap", GST-tagged TAF3, total replicate number n = 4
# Method in brief: as §1
# BPTF (PB) = conditions: arrays performed twice; for Array Heatmap signal, BPTF (PB): sheet "Array Heatmap", GST-tagged BPTF (PB), total replicate number n = 4
# Method in brief: as §1
# PHF8 = conditions: arrays performed twice; for Array Heatmap signal, PHF8: sheet "Array Heatmap", GST-tagged PHF8, total replicate number n = 4
# Method in brief: as §1
# KDM5A (1) = conditions: arrays performed twice; for Array Heatmap signal, KDM5A (1): sheet "Array Heatmap", GST-tagged KDM5A (1), total replicate number n = 4
# Method in brief: as §1
# ING5 = conditions: arrays performed twice; for Array Heatmap signal, ING5: sheet "Array Heatmap", GST-tagged ING5, total replicate number n = 4
# Method in brief: as §1
# DPF2 (PPC2W2) = conditions: arrays performed twice; for Array Heatmap signal, DPF2 (PPC2W2): sheet "Array Heatmap", GST-tagged DPF2 (PPC2W2), total replicate number n = 4
# Method in brief: as §1
# BAZ2B = conditions: arrays performed twice; for Array Heatmap signal, BAZ2B: sheet "Array Heatmap", GST-tagged BAZ2B, total replicate number n = 4
# Method in brief: as §1
substance,measurement,setting,value
"H3K56me3 (52-61): H3 52-61 (RRYQK(Me3)STELL; UniProt P68431 53-62, looked up, fragment)","Array Heatmap signal, RAG2",RAG2,0.2347
same,"Array Heatmap signal, AIRE (PP)",AIRE (PP),0.4132
same,"Array Heatmap signal, PHF23",PHF23,0.5132
same,"Array Heatmap signal, KDM4C (TTP)",KDM4C (TTP),0.4664
same,"Array Heatmap signal, PHF2",PHF2,0.4592
same,"Array Heatmap signal, MORC3 (CW)",MORC3 (CW),0.3573
same,"Array Heatmap signal, KDM5B (1)",KDM5B (1),0.6393
same,"Array Heatmap signal, KDM7A",KDM7A,0.3588
same,"Array Heatmap signal, ING4",ING4,0.4217
same,"Array Heatmap signal, ING1",ING1,0.5013
same,"Array Heatmap signal, CHD5 (PPCC)",CHD5 (PPCC),0.5162
same,"Array Heatmap signal, PHF21A",PHF21A,0.4399
same,"Array Heatmap signal, KDM5A (3)",KDM5A (3),0.4564
same,"Array Heatmap signal, KDM5B (3)",KDM5B (3),0.4529
same,"Array Heatmap signal, CHD4 (PPCC)",CHD4 (PPCC),0.5342
same,"Array Heatmap signal, PHF13",PHF13,0.5794
same,"Array Heatmap signal, DIDO1",DIDO1,0.6681
same,"Array Heatmap signal, CHD5 (PCC)",CHD5 (PCC),0.7613
same,"Array Heatmap signal, TRIM66 (PB)",TRIM66 (PB),0.5682
same,"Array Heatmap signal, ING3",ING3,0.4641
same,"Array Heatmap signal, SP140L",SP140L,0.3549
same,"Array Heatmap signal, PHRF1 (RP)",PHRF1 (RP),0.4158
same,"Array Heatmap signal, MLL5",MLL5,0.5095
same,"Array Heatmap signal, ING2",ING2,0.5755
same,"Array Heatmap signal, TAF3",TAF3,0.2469
same,"Array Heatmap signal, BPTF (PB)",BPTF (PB),0.343
same,"Array Heatmap signal, PHF8",PHF8,0.3607
same,"Array Heatmap signal, KDM5A (1)",KDM5A (1),0.4335
same,"Array Heatmap signal, ING5",ING5,0.3269
same,"Array Heatmap signal, DPF2 (PPC2W2)",DPF2 (PPC2W2),0.6082
same,"Array Heatmap signal, BAZ2B",BAZ2B,0.4232
H3K23me1 15-34: H3 15-34,"Array Heatmap signal, RAG2",RAG2,0.2067
same,"Array Heatmap signal, AIRE (PP)",AIRE (PP),0.4449
same,"Array Heatmap signal, PHF23",PHF23,0.4553
same,"Array Heatmap signal, KDM4C (TTP)",KDM4C (TTP),0.4583
same,"Array Heatmap signal, PHF2",PHF2,0.3956
same,"Array Heatmap signal, MORC3 (CW)",MORC3 (CW),0.2751
same,"Array Heatmap signal, KDM5B (1)",KDM5B (1),0.6704
same,"Array Heatmap signal, KDM7A",KDM7A,0.3872
same,"Array Heatmap signal, ING4",ING4,0.3978
same,"Array Heatmap signal, ING1",ING1,0.468
same,"Array Heatmap signal, CHD5 (PPCC)",CHD5 (PPCC),0.4785
same,"Array Heatmap signal, PHF21A",PHF21A,0.4373
same,"Array Heatmap signal, KDM5A (3)",KDM5A (3),0.3565
same,"Array Heatmap signal, KDM5B (3)",KDM5B (3),0.4273
same,"Array Heatmap signal, CHD4 (PPCC)",CHD4 (PPCC),0.5163
same,"Array Heatmap signal, PHF13",PHF13,0.5337
same,"Array Heatmap signal, DIDO1",DIDO1,0.5926
same,"Array Heatmap signal, CHD5 (PCC)",CHD5 (PCC),0.7691
same,"Array Heatmap signal, TRIM66 (PB)",TRIM66 (PB),0.5248
same,"Array Heatmap signal, ING3",ING3,0.3997
same,"Array Heatmap signal, SP140L",SP140L,0.3205
same,"Array Heatmap signal, PHRF1 (RP)",PHRF1 (RP),0.3534
same,"Array Heatmap signal, MLL5",MLL5,0.5166
same,"Array Heatmap signal, ING2",ING2,0.5717
same,"Array Heatmap signal, TAF3",TAF3,0.2405
same,"Array Heatmap signal, BPTF (PB)",BPTF (PB),0.3041
same,"Array Heatmap signal, PHF8",PHF8,0.3239
same,"Array Heatmap signal, KDM5A (1)",KDM5A (1),0.4342
same,"Array Heatmap signal, ING5",ING5,0.3097
same,"Array Heatmap signal, DPF2 (PPC2W2)",DPF2 (PPC2W2),0.6371
same,"Array Heatmap signal, BAZ2B",BAZ2B,0.4158
H4K20ac: H4 1-23 [Peptide H4K20ac],Array Heatmap value (peptide array binding signal),"RAG2; RAG2, GST-tagged, n of 4",0.2177
same,Array Heatmap value (peptide array binding signal),"AIRE (PP); AIRE (PP), GST-tagged, n of 4",0.423
same,Array Heatmap value (peptide array binding signal),"PHF23; PHF23, GST-tagged, n of 4",0.4966
same,Array Heatmap value (peptide array binding signal),"KDM4C (TTP); KDM4C (TTP), GST-tagged, n of 4",0.4301
same,Array Heatmap value (peptide array binding signal),"PHF2; PHF2, GST-tagged, n of 4",0.4522
same,Array Heatmap value (peptide array binding signal),"MORC3 (CW); MORC3 (CW), GST-tagged, n of 4",0.3311
same,Array Heatmap value (peptide array binding signal),"KDM5B (1); KDM5B (1), GST-tagged, n of 4",0.6134
same,Array Heatmap value (peptide array binding signal),"KDM7A; KDM7A, GST-tagged, n of 4",0.3276
same,Array Heatmap value (peptide array binding signal),"ING4; ING4, GST-tagged, n of 4",0.4009
same,Array Heatmap value (peptide array binding signal),"ING1; ING1, GST-tagged, n of 4",0.4651
same,Array Heatmap value (peptide array binding signal),"CHD5 (PPCC); CHD5 (PPCC), GST-tagged, n of 4",0.4774
same,Array Heatmap value (peptide array binding signal),"PHF21A; PHF21A, GST-tagged, n of 4",0.3977
same,Array Heatmap value (peptide array binding signal),"KDM5A (3); KDM5A (3), GST-tagged, n of 4",0.374
same,Array Heatmap value (peptide array binding signal),"KDM5B (3); KDM5B (3), GST-tagged, n of 4",0.5071
same,Array Heatmap value (peptide array binding signal),"CHD4 (PPCC); CHD4 (PPCC), GST-tagged, n of 4",0.5173
same,Array Heatmap value (peptide array binding signal),"PHF13; PHF13, GST-tagged, n of 4",0.5544
same,Array Heatmap value (peptide array binding signal),"DIDO1; DIDO1, GST-tagged, n of 4",0.5747
same,Array Heatmap value (peptide array binding signal),"CHD5 (PCC); CHD5 (PCC), GST-tagged, n of 4",0.7369
same,Array Heatmap value (peptide array binding signal),"TRIM66 (PB); TRIM66 (PB), GST-tagged, n of 4",0.5321
same,Array Heatmap value (peptide array binding signal),"ING3; ING3, GST-tagged, n of 4",0.4032
same,Array Heatmap value (peptide array binding signal),"SP140L; SP140L, GST-tagged, n of 4",0.3288
same,Array Heatmap value (peptide array binding signal),"PHRF1 (RP); PHRF1 (RP), GST-tagged, n of 4",0.3806
same,Array Heatmap value (peptide array binding signal),"MLL5; MLL5, GST-tagged, n of 4",0.5228
same,Array Heatmap value (peptide array binding signal),"ING2; ING2, GST-tagged, n of 4",0.5829
same,Array Heatmap value (peptide array binding signal),"TAF3; TAF3, GST-tagged, n of 4",0.2578
same,Array Heatmap value (peptide array binding signal),"BPTF (PB); BPTF (PB), GST-tagged, n of 4",0.3137
same,Array Heatmap value (peptide array binding signal),"PHF8; PHF8, GST-tagged, n of 4",0.3218
same,Array Heatmap value (peptide array binding signal),"KDM5A (1); KDM5A (1), GST-tagged, n of 4",0.4202
same,Array Heatmap value (peptide array binding signal),"ING5; ING5, GST-tagged, n of 4",0.3047
same,Array Heatmap value (peptide array binding signal),"DPF2 (PPC2W2); DPF2 (PPC2W2), GST-tagged, n of 4",0.5691
same,Array Heatmap value (peptide array binding signal),"BAZ2B; BAZ2B, GST-tagged, n of 4",0.4009
